# The source made the active and inactive calls. Rule as the data show it, for most assays here: actives have a measured IC50 and inactives only a lower limit.
# Tests used:
# [1] = molecular target: T1, Sentrin-specific protease 6 (Homo sapiens, UniProt Q9GZR1); assay type: functional;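 also: Luminescence-based dose-response confirmatory assay of SENP6 inhibition, following up an ultra-high-throughput screen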
# T1 sequence (Q9GZR1 whole entry): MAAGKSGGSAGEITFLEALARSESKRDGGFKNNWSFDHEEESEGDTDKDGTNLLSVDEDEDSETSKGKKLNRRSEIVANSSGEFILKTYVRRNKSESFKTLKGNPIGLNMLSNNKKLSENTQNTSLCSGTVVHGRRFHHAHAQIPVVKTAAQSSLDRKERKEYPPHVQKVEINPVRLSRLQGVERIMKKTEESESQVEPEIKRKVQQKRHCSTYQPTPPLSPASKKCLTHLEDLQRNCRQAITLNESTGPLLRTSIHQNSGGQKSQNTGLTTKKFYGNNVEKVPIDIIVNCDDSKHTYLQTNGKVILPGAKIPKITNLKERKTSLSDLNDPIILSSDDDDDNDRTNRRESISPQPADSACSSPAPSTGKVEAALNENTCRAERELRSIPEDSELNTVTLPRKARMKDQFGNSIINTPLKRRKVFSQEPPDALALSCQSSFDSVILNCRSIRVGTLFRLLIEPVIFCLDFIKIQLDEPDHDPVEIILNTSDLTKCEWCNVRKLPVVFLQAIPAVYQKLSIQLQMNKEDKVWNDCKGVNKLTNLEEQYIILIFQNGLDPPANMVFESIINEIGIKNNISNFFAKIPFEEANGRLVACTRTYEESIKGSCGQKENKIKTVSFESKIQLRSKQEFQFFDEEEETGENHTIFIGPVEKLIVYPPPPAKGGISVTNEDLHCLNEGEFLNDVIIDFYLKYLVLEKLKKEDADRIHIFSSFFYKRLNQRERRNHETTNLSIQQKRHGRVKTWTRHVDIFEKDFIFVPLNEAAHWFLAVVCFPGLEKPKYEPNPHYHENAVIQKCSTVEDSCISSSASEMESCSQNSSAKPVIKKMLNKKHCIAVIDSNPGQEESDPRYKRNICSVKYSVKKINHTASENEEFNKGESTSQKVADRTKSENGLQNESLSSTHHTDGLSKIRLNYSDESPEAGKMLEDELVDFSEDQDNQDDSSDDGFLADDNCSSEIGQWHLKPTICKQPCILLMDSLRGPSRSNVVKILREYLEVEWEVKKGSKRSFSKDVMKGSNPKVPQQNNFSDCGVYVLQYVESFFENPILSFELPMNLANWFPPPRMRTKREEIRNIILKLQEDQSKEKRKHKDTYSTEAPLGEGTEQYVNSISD
# [2] = molecular target: T2, Caspase-3 (Homo sapiens, UniProt P42574); assay type: functional;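 also: Dose-response selectivity test against caspase-3 for candidate inhibitors of sentrin-specific proteases (SENPs)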
# T2 sequence (P42574 whole entry): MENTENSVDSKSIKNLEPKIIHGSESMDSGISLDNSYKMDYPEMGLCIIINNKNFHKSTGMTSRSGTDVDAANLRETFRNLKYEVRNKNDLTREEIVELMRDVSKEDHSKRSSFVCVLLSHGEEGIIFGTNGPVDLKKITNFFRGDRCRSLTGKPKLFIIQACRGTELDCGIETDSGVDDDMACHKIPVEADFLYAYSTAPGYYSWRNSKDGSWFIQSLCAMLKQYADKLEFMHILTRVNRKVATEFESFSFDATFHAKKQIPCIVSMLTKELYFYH
# [3] = molecular target: T3, Sentrin-specific protease 8 (Homo sapiens, UniProt Q96LD8); assay type: functional;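 also: luminescence read-out of SENP8 inhibition, dose-response confirmation following an ultra-high-throughput screen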
# T3 sequence (Q96LD8 whole entry): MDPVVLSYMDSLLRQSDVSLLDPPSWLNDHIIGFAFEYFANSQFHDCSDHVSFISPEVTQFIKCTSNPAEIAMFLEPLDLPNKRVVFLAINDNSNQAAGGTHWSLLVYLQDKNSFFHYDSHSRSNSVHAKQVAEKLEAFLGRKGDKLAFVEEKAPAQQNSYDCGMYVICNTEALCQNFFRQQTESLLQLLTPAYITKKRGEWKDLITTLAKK
# [4] = cells
# [5] = molecular target: T4, Oxysterols receptor LXR-beta (Homo sapiens, UniProt P55055); assay type: functional, cell-based;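 also: Cell-based luminescence dose-response assay of agonist activity at LXR, run as a confirmatory counterscreen to a daf-12 agonist screen; HEK293 cells with Gal4-LXR fusion and GAL4-driven luciferase reporter; agonist potency from rising luciferase signal of a Gal4-LXR reporter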
# T4 sequence (P55055 whole entry): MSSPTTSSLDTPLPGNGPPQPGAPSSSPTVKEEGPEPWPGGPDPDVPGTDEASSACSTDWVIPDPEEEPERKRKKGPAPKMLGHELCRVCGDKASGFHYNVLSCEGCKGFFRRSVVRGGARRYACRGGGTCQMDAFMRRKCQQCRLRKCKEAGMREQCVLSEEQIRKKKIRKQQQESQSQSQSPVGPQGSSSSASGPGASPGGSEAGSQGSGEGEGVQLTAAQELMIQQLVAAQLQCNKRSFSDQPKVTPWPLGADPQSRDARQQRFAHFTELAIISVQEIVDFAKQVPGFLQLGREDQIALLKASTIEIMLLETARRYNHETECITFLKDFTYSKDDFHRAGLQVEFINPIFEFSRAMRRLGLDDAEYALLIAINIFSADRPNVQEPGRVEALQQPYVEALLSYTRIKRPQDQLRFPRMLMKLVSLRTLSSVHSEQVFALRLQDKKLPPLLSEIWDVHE
# [6] = molecular target: T5, Sentrin-specific protease 7 (Homo sapiens, UniProt Q9BQF6); assay type: functional;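 also: Luminescence-based dose-response confirmation of ultra-high-throughput screening hits, measuring inhibition of SENP7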
# T5 sequence (Q9BQF6 whole entry): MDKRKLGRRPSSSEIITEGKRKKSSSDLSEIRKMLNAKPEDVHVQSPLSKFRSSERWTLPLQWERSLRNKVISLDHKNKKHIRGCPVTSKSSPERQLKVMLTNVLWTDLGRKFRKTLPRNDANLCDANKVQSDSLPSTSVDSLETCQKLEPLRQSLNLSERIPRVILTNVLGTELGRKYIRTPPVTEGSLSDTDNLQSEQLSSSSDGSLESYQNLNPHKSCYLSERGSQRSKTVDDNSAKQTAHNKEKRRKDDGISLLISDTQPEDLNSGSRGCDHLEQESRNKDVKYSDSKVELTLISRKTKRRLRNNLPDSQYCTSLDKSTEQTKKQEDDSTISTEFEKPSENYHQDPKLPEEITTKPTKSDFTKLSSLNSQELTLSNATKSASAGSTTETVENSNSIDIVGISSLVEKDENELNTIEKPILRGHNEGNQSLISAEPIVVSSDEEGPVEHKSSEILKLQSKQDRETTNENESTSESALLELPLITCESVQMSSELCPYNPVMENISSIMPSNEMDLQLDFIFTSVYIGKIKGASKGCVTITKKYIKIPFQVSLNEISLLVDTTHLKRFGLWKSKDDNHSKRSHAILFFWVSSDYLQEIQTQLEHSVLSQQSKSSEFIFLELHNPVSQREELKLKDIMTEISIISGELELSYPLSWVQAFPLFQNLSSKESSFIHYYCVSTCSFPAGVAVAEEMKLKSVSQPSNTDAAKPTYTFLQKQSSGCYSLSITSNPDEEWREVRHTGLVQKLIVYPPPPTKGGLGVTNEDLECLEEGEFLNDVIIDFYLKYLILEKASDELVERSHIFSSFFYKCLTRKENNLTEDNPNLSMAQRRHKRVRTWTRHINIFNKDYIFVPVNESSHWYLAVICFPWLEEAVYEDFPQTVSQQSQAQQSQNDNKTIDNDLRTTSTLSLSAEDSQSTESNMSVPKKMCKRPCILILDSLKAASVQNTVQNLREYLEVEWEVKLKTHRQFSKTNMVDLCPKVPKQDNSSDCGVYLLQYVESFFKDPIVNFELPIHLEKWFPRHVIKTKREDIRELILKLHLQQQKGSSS
structure (smiles),measurement,setting,value
C(=N\Nc1ccccc1)/c1nc2ccccc2s1,IC50,[1],> 100 µM (inactive)
same,IC50,[2],26 µM (active)
same,IC50,[3],> 100 µM (inactive)
same,EC50,[4],> 67.5 µM (inactive)
same,EC50,[5],> 67.5 µM (inactive)
same,IC50,[6],1.6 µM (active)

# Source: ChEMBL document CHEMBL1201862, “PubChem BioAssay data set” (2004)
